# From US6916918B2, “Human glandular kallikrein enhancer, vectors comprising the enhancer and methods of use thereof” (priority 1997, dated 2005)
# System: LNCaP cells transfected with CN390
# Test: steroid hormone specificity of the 1.17-kb hKLK2 enhancer, luciferase reporter
# Format: cell-based, human
# Conditions: FIG. 14
# Description: To assess the androgen specificity of the hKLK2 enhancer, LNCaP cells transfected with CN390 (1.17-kb “full enhancer activity” hKLK2 enhancer/minimal hKLK2 promoter) were treated with various steroid hormones.
row,Structure (SMILES),induction of luciferase activity by steroid hormone vs cells not treated with hormones
1,"C[C@]12CCC(=O)C[C@@H]1CC[C@@H]1[C@@H]2CC[C@]2(C)[C@@H](O)CC[C@@H]12 [DHT, dihydrotestosterone]",marked increases in luciferase activity
2,CC/C(=C(/CC)c1ccc(O)cc1)c1ccc(O)cc1 [DES],little or no inducibility
3,"C[C@]1(O)CC[C@H]2[C@@H]3CCC4=CC(=O)CCC4=C3C=C[C@@]21C [R1881, methyl trienolone]",marked increases in luciferase activity
4,C[C@@H]1C[C@H]2[C@@H]3CCC4=CC(=O)C=C[C@]4(C)[C@@]3(F)[C@@H](O)C[C@]2(C)[C@@]1(O)C(=O)CO [DEX],little or no inducibility
